Results taken from US20220227765A1, “PYRIDO-INDOLE ANALOGUES AS GPX4 INHIBITORS” (Ferro Therapeutics, Inc., priority 2019, published 2022).
Read-outs that look alike come from different tables or passages of the source.

Tests used:
Type in all cases: cell-based, human
A431 = experiment: Cell proliferation (Alamar Blue) assay, A431
Method: (§1) Cell viability assay was performed to assess the potency of the compounds in human cancer cell lines 786-0 (renal cell carcinoma) and SJSA-1 (osteosarcoma). Additional cell lines, such as pancreatic cancer cell lines (Panc 02.13, BxPC-3, Panc 12, Panc 02.03, Panc 6.03, PSN-1, HPAC, and Capan-1), prostate cancer cell lines (PC-3, DU145, 22Rv1, NCI-H660, BPH1, LNCaP, BM-1604, and MDA PCa 2b), etc., can be tested in a similar method.
(§2) Cells (SJSA-1, 786-0 and A431) were seeded (5000 cells/100 μL/well) in 96-well tissue culture plate and incubated at 37° C./5% CO2 for 16-24 hours. The cells were then treated with compounds (25 μL of 5×). The compound concentrations were 10-0.0005 μM prepared in 3-fold serial dilutions with final DMSO concentration of 1%. The plates were then incubated for 24 h at 37° C./5% CO2 in a moist environment. Then Alamar Blue™ reagent (final concentration 1×-12.5 μL) was added to each well and incubated for 1.5 hours at 37° C./5% CO2. The plates were read on fluorescence reader at 540 nm excitation and 590 nm emission wavelengths. The IC50 values were subsequently determined using a sigmoidal dose-response curve (variable slope) in GraphPad Prism® 5 software. Table A-3, Table B-3 and Table C-3 show cell proliferation data for certain compounds as described herein.

786-O = experiment: Cell proliferation (Alamar Blue) assay, 786-O
Method: as §1, §2

SJSA-1 = experiment: Cell proliferation (Alamar Blue) assay, SJSA-1
Method: as §1, §2

[1] = Homo sapiens, A-431, 24 h, Table A-3, A431 cells
[2] = Homo sapiens, 786-0, 24 h, Table A-3, 786-O cells
[3] = Homo sapiens, SJSA-1, 24 h, Table A-3, SJSA-1 cells, 24 h, read-out: IC50 (μM) SJSA-1
[4] = Homo sapiens, A-431, 24 h, Table B-3, A431 cells
[5] = Homo sapiens, 786-0, 24 h, Table B-3, 786-O cells
[6] = Homo sapiens, SJSA-1, 24 h, Table B-3, head prints SJSB-1, 24 h, read-out: IC50 (μM) SJSB-1
[7] = Table B-3, head prints SJSB-1, 24 h, read-out: IC50 (μM) SJSB-1
[8] = Homo sapiens, 786-0, 24 h, Table C-3, 786-O cells
[9] = Homo sapiens, SJSA-1, 24 h, Table C-3, SJSA-1 cells, 24 h, read-out: IC50 (μM) SJSA-1
[10] = Homo sapiens, A-431, 24 h, Table C-3, A431 cells

## C[C@H]1Cc2c([nH]c3ncccc23)[C@H](c2ccc(F)cc2)N1C(=O)CCl [Compound A-1]
A431; [1]
  IC50: > 10 µM
786-O; [2]
  IC50: 0.03 µM
SJSA-1; [3]
  IC50: 0.145 µM

## C[C@H]1Cc2c([nH]c3ncccc23)[C@@H](c2ccc(F)cc2)N1C(=O)CCl [Compound A-2]
A431; [1]
  IC50: 7.06 µM
786-O; [2]
  IC50: 3.52 µM
SJSA-1; [3]
  IC50: 9.11 µM

## C#CC(=O)N1[C@@H](CCCC)Cc2c([nH]c3ncccc23)[C@@H]1c1ccc(F)cc1 [Compound A-3]
A431; [1]
  IC50: 8.36 µM
786-O; [2]
  IC50: 0.017 µM
SJSA-1; [3]
  IC50: 0.017 µM

## C#CC(=O)N1[C@@H](CCCC)Cc2c([nH]c3ncccc23)[C@@H]1c1ccc(NC23CC4CC(CC(C4)C2)C3)cc1 [Compound A-7]
A431; [1]
  IC50: 4.88 µM
786-O; [2]
  IC50: 0.034 µM
SJSA-1; [3]
  IC50: 0.058 µM

## CCCC[C@H]1Cc2c([nH]c3ccccc23)[C@H](c2ccc(C(=O)NC34CC5CC(CC(C5)C3)C4)cc2)N1C(=O)CCl [Compound B-1, N-((1R,3R)-adamantan-1-yl)-4-((1S,3S)-3-butyl-2-(2-chloroacetyl)-2,3,4,9-tetrahydro-1H-pyrido[3,4-b]indol-1-yl)benzamide]
A431; [4]
  IC50: 2.7 µM
786-O; [5]
  IC50: 0.001 µM
SJSA-1; [6]
  IC50: 0.003 µM

## C#CC(=O)N1[C@@H](CCCC)Cc2c([nH]c3ccccc23)[C@@H]1c1ccc(-c2nc(C)no2)cc1 [Compound B-2, 1-((1S,3S)-3-butyl-1-(4-(3-methyl-1,2,4-oxadiazol-5-yl)phenyl)-1,3,4,9-tetrahydro-2H-pyrido[3,4-b]indol-2-yl)prop-2-yn-1-one]
A431; [4]
  IC50: 3.2 µM
786-O; [5]
  IC50: 0.006 µM
SJSA-1; [6]
  IC50: 0.014 µM

## C#CC(=O)N1[C@@H](CCCC)Cc2c([nH]c3ccccc23)[C@@H]1c1ccc(NC2CCC2)cc1 [Compound B-4, 1-((1S,3S)-3-butyl-1-(4-(cyclobutylamino)phenyl)-1,3,4,9-tetrahydro-2H-pyrido[3,4-b]indol-2-yl)prop-2-yn-1-one]
A431; [4]
  IC50: 5.9 µM
786-O; [5]
  IC50: 0.008 µM
SJSA-1; [6]
  IC50: 0.015 µM

## C#CC(=O)N1[C@@H](c2ccc(NC34CC5CC(CC(C5)C3)C4)cc2)c2[nH]c3ccccc3c2C[C@@H]1C(=O)OC [Compound B-6, methyl (1S,3R)-1-(4-(((3R,5R,7R)-adamantan-1-yl)amino)phenyl)-2-propioloyl-2,3,4,9-tetrahydro-1H-pyrido[3,4-b]indole-3-carboxylate]
A431; [4]
  IC50: 6.1 µM
786-O; [5]
  IC50: 0.024 µM
SJSA-1; [6]
  IC50: 0.024 µM

## C#CC(=O)N1[C@@H](CCCC)Cc2c([nH]c3ccccc23)[C@@H]1c1ccc(C(=O)NC23CC4CC(CC(C4)C2)C3)cc1 [Compound B-7, N-((3R,5R,7R)-adamantan-1-yl)-4-((1S,3S)-3-butyl-2-propioloyl-2,3,4,9-tetrahydro-1H-pyrido[3,4-b]indol-1-yl)benzamide]
A431; [4]
  IC50: 5.5 µM
786-O; [5]
  IC50: 0.002 µM
SJSA-1; [6]
  IC50: 0.002 µM

## COC(=O)[C@H]1Cc2c([nH]c3ccccc23)[C@H](c2ccc(N(C(=O)CCCC[C@@H]3SC[C@@H]4NC(=O)N[C@@H]43)C3CC3)cc2)N1C(=O)CCl [Compound B-8, methyl (1S,3R)-2-(2-chloroacetyl)-1-(4-(N-cyclopropyl-5-((3aS,4S,6aR)-2-oxohexahydro-1H-thieno[3,4-d]imidazol-4-yl)pentanamido)phenyl)-2,3,4,9-tetrahydro-1H-pyrido[3,4-b]indole-3-carboxylate]
786-O; [5]
  IC50: 1.7 µM
SJSA-1; [6]
  IC50: 1.9 µM

## COC(=O)[C@H]1Cc2c([nH]c3ccccc23)[C@@H](c2ccc(N(C(=O)CCCC[C@@H]3SC[C@@H]4NC(=O)N[C@@H]43)C3CC3)cc2)N1C(=O)CCl [Compound B-9, methyl (1R,3R)-2-(2-chloroacetyl)-1-(4-(N-cyclopropyl-5-((3aS,4S,6aR)-2-oxohexahydro-1H-thieno[3,4-d]imidazol-4-yl)pentanamido)phenyl)-2,3,4,9-tetrahydro-1H-pyrido[3,4-b]indole-3-carboxylate]
786-O; [5]
  IC50: > 10 µM
SJSA-1; [6]
  IC50: > 10 µM

## C#CC(=O)N1[C@@H](CCCC)Cc2c([nH]c3ccc(F)cc23)[C@@H]1c1ccc(C(=O)NCCOC)cc1 [Compound B-11]
A431; [4]
  IC50: 4.3 µM
786-O; [5]
  IC50: 0.008 µM
SJSA-1; [6]
  IC50: 0.025 µM

## C#CC(=O)N1[C@@H](CCCC)Cc2c([nH]c3ccccc23)[C@@H]1c1ccc(NC2CCS(=O)(=O)CC2)cc1 [Compound B-13]
A431; [4]
  IC50: 7.2 µM
786-O; [5]
  IC50: 0.013 µM
SJSA-1; [6]
  IC50: 0.018 µM

## CCCC[C@H]1Cc2c([nH]c3ccccc23)[C@H](c2ccc(NC(=O)c3ccncc3)cc2)N1C(=O)CCl [Compound B-14]
A431; [4]
  IC50: 3 µM
786-O; [5]
  IC50: 0.015 µM
SJSA-1; [6]
  IC50: 0.019 µM

## C#CC(=O)N1[C@@H](CCCC)Cc2c([nH]c3ccccc23)[C@@H]1c1ccc(NC(=O)c2ccncc2)cc1 [Compound B-15]
A431; [4]
  IC50: > 10 µM
786-O; [5]
  IC50: 0.013 µM
SJSA-1; [6]
  IC50: 0.029 µM

## C#CC(=O)N1[C@@H](CCCC)Cc2c([nH]c3ccccc23)[C@@H]1c1ccc(C(=O)NCC2(O)CCC2)cc1 [Compound B-16]
A431; [4]
  IC50: 6.4 µM
786-O; [5]
  IC50: 0.007 µM
SJSA-1; [6]
  IC50: 0.029 µM

## C#CC(=O)N1[C@@H](CCCC)Cc2c([nH]c3ccccc23)[C@@H]1c1ccc(NC23CC4CC(CC(C4)C2)C3)cc1 [Compound B-17]
A431; Table B-3, A431 cells, 24 h
  IC50: 3.6 µM
786-O; Table B-3, 786-O cells, 24 h
  IC50: 0.006 µM
SJSA-1; [7]
  IC50: 0.008 µM

## C#CC(=O)N1[C@@H](CCCC)Cc2c([nH]c3ccccc23)[C@@H]1c1ccc(NC23CC4CC(CC(O)(C4)C2)C3)cc1 [Compound B-44]
786-O; [5]
  IC50: 0.006 µM
SJSA-1; [6]
  IC50: 0.014 µM

## C#CC(=O)N1[C@@H](CCCC)Cc2c([nH]c3ccccc23)[C@@H]1c1ccc(N2C3CCC2COC3)cc1 [Compound B-66, 1-((1 S,3 S)-1-(4-(3-oxa-8-azabicyclo[3.2.1]octan-8-yl)phenyl)-3-butyl-1,3,4,9-tetrahydro-2H-pyrido[3,4-b]indol-2-yl)prop-2-yn-1-one]
A431; [4]
  IC50: 4.35 µM

## C#CC(=O)N1[C@@H](CCCC)Cc2c([nH]c3c(F)cc(F)cc23)[C@@H]1C1CCN(C(=O)OC)CC1 [Compound B-75]
786-O; Table B-3, 786-O cells, 24 h
  IC50: 0.03 µM
SJSA-1; [7]
  IC50: 0.06 µM

## C#CC(=O)N1[C@@H](CCCC)Cc2c([nH]c3c(F)cc(F)cc23)[C@@H]1C12CC(NC(=O)OCCCCC)(C1)C2 [Compound B-84]
786-O; [5]
  IC50: 0.086 µM
SJSA-1; [6]
  IC50: 0.084 µM

## C#CC(=O)N1[C@@H](CCCC)Cc2c([nH]c3c(F)cc(F)cc23)[C@@H]1c1ccc(NC(=O)OCCCCC)cc1 [Compound B-91]
786-O; Table B-3, 786-O cells, 24 h
  IC50: 0.076 µM
SJSA-1; [7]
  IC50: 0.075 µM

## C#CC(=O)N1[C@@H](CCCC)Cc2c(n(C)c3c(F)cc(F)cc23)[C@@H]1c1ccc(NC(=O)OCCCCC)cc1 [Compound B-96]
786-O; [5]
  IC50: 0.08 µM
SJSA-1; [6]
  IC50: 0.293 µM

## C#CC(=O)N1[C@@H](CCCC)Cc2c(n(CC(O)CO)c3c(F)cc(F)cc23)[C@@H]1c1ccc(NC(=O)OCCCCC)cc1 (some centres unmarked) [Compound B-98]
A431; [4]
  IC50: > 10 µM
786-O; [5]
  IC50: 0.181 µM

## C#CC(=O)N1[C@@H](CCCC)Cc2c(oc3ccccc23)[C@@H]1c1ccc(NC(=O)OCCCCC)cc1 [Compound B-101]
A431; [4]
  IC50: 7.97 µM
786-O; [5]
  IC50: 0.155 µM

## C[C@H]1Cc2c([nH]c3ccccc23)[C@](C)(c2ccc(F)cc2)N1C(=O)CCl [Compound C-18]
786-O; [8]
  IC50: 0.437 µM
SJSA-1; [9]
  IC50: 0.332 µM

## C#CC(=O)N1CCc2c([nH]c3ccccc23)C1(C)c1ccc(F)cc1 (centres unmarked) [Compound C-19]
786-O; [8]
  IC50: 2.32 µM
SJSA-1; [9]
  IC50: 1.89 µM

## CC1(c2ccc(F)cc2)c2[nH]c3ccccc3c2CCN1C(=O)CCl (centres unmarked) [Compound C-20]
786-O; [8]
  IC50: 4.49 µM
SJSA-1; [9]
  IC50: 3.98 µM

## C#CC(=O)N1[C@@H](CCCC)Cc2cc(OC)ccc2[C@]1(C)c1ccc(NC23CC4CC(CC(C4)C2)C3)cc1 [Compound C-35]
A431; [10]
  IC50: > 10 µM
786-O; [8]
  IC50: 0.45 µM

## C#CC(=O)N1[C@@H](CCCC)Cc2cc(OC)ccc2[C@@]1(C)c1ccc(NC23CC4CC(CC(C4)C2)C3)cc1 [Compound C-36]
A431; [10]
  IC50: > 10 µM
786-O; [8]
  IC50: 0.69 µM
